Data: patent US7056491B2, “Monoterpenes and sesquiterpenes as chemotherapeutic and radiation sensitizers and immunomodulators” (Wisconsin Alumni Research Foundation, priority 2000, dated 2006)

What was measured:
[1] = system: rat mammary carcinoma; settings: limonene, Haag et al.; cited from earlier work
[2] = rats, 10% limonene diet for 10 weeks; cited from earlier work
[3] = system: 21–26 kD proteins, including small GTP-binding proteins; settings: dose dependent, distal to HMG-CoA reductase; cited from earlier work
[4] = system: T98G cells; assay: Clonogenic survival, POH pretreatment then doxorubicin, T98G; type: cell-based, human; settings: T98G
Procedure: Referring to FIG. 29, subconfluent cells of T98G cells were treated with varying concentrations of perillyl alcohol (0.1 mM–0.5 mM) for 48 hours and subsequently treated with the indicated dose of doxorubicin (0.01 uM–0.1 uM) for 48 hours. At the end of the treatment, POH-pretreated and untreated cells in the presence and absence of doxorubicin, were harvested, washed with PBS, plated at the desired cell number and incubated for two weeks. The colonies were stained with crystal violet and quantitated. Survival was determined as the ratio of plating efficiencies for each irradiated group to that of the untreated control. […] Doxorubicin at concentrations over 0.1 uM appeared to be toxic to the cells.

| Compound | effect on advanced rat mammary carcinomas [1] | plasma levels of terpene metabolites [2] | isoprenylation of 21–26 kD proteins [3] | concentrations toxic to the cells [4] |
| --- | --- | --- | --- | --- |
| C=C(C)[C@H]1CC=C(C)CC1 [limonene] | regression of advanced rat mammary carcinomas | 270 µM | inhibit isoprenylation |  |
| COc1cccc2c1C(=O)c1c(O)c3c(c(O)c1C2=O)C[C@@](O)(C(=O)CO)C[C@@H]3O[C@H]1C[C@H](N)[C@H](O)[C@H](C)O1 [Doxorubicin, reference compound] |  |  |  | over 0.1 uM |
